From patent US20120165309A1, “HETERO RING DERIVATIVE” (Astellas Pharma Inc., priority 2009, published 2012) come the findings set out here.

The structures appear in SMILES notation.

Test [1] has as its target T1, Human PI3Kα (Homo sapiens, UniProt P42336).
T1 construct: purchased Millipore Corporation 14-602
In words: PI3Kα enzyme inhibitory activity (Kinase-Glo Plus luminescence). To be noted: Human PI3Kα 12 ng/well, phosphatidylinositol 0.2 μg/well, 37° C. for 3 hours. The format is biochemical. As for the experimental part: 2. PI3Kα Enzyme Inhibitory Activity
Human PI3Kα (12 ng/well, Millipore Corporation, Catalogue No. 14-602), phosphatidylinositol (0.2 μg/well), and the test compound were mixed in a 384-well plate in a reaction buffer (50 mM Hepes, 10 mM NaCl, 10 mM MgCl2, 2 mM EGTA, 2 mM DTT, pH 7.3) (total 10 μl), and incubated at 37° C. for 3 hours. After the reaction, 10 μL of a Kinase-Glo Plus reagent (Promega, Catalogue No. V3772) was added thereto, and a luminescence was measured with a luminometer. The IC50 value of the compound was calculated, taking the inhibition rate without addition of the enzyme as 100% and the inhibition rate without addition of the test compound as 0%, by a logistic method.
(§1) In the Table, Ex represents Example Compound No. as described later, PI3Kδ represents the IC50 value (nM) of a PI3Kδ enzyme inhibitory activity, and PI3Kα represents the IC50 value (nM) of a PI3Kα enzyme inhibitory activity.

Test [2] concerns the target T2, human PI3Kδ enzyme (Homo sapiens, UniProt O00329).
T2 construct: purchased Millipore Corporation 14-604
In words: PI3Kδ enzyme inhibitory activity (PI3-Kinase HTRF Assay kit). It is filed as biochemical. To be noted: human PI3Kδ 10 ng/well, ATP 30 μM, PIP2 10 μM, room temperature 30 minutes. As for the experimental part:
1. PI3Kδ Enzyme Inhibitory Activity
For the experiment, a PI3-Kinase HTRF Assay kit (Millipore Corporation, Catalogue No. 33-016) and a human PI3Kδ enzyme (Millipore Corporation, Catalogue No. 14-604) were used. The measurement method was in accordance with the appended instructions. The overview thereof is as follows.
PI3Kδ (10 ng/well), phosphatidylinositol-4,5-bisphosphate (10 μM), ATP (30 μM), and the test compound were mixed in a 384-well plate (total 20 μL), and incubated at room temperature for 30 minutes. EDTA and biotinylated phosphatidylinositol-3,4,5-triphosphate were added thereto to stop the reaction. Thereafter, a Europium labeled anti-GST antibody, a GST bond GRP1 PH domain, and streptavidin-APC were added thereto, followed by incubation overnight. An HTRF ratio was measured using an HTRF plate reader. The IC50 value of the compound was calculated, taking the inhibition rate without addition of the enzyme as 100% and the inhibition rate without addition of the test compound as 0%, by means of a logistic method.
as §1

T1 sequence (P42336 whole entry): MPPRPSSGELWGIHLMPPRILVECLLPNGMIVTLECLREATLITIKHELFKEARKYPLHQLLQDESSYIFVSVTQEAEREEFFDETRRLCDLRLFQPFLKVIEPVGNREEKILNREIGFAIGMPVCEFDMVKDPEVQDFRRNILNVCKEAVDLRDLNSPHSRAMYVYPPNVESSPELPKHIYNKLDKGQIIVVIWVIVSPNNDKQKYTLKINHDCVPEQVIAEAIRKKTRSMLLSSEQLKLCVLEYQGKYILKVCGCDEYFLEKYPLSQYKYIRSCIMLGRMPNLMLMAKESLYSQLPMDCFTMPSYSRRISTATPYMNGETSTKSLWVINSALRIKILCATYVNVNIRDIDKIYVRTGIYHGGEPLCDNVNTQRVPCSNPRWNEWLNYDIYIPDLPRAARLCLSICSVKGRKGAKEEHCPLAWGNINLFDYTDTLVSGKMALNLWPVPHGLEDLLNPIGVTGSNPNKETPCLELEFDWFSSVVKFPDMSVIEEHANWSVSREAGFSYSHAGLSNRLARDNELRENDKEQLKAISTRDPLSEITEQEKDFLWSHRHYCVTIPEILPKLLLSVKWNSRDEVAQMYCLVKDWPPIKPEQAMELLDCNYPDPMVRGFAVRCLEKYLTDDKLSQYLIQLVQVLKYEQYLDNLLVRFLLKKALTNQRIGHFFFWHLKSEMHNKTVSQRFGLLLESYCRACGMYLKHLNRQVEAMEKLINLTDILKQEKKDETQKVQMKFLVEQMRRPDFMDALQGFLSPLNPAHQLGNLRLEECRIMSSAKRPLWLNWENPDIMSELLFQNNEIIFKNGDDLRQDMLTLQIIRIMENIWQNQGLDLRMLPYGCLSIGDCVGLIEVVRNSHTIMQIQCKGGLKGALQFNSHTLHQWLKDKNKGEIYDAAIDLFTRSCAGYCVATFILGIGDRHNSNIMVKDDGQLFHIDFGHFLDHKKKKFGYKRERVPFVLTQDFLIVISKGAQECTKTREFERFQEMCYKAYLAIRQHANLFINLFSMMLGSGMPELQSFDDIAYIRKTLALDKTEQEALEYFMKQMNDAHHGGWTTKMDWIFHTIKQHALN
T1 sequence (P27986 whole entry partner): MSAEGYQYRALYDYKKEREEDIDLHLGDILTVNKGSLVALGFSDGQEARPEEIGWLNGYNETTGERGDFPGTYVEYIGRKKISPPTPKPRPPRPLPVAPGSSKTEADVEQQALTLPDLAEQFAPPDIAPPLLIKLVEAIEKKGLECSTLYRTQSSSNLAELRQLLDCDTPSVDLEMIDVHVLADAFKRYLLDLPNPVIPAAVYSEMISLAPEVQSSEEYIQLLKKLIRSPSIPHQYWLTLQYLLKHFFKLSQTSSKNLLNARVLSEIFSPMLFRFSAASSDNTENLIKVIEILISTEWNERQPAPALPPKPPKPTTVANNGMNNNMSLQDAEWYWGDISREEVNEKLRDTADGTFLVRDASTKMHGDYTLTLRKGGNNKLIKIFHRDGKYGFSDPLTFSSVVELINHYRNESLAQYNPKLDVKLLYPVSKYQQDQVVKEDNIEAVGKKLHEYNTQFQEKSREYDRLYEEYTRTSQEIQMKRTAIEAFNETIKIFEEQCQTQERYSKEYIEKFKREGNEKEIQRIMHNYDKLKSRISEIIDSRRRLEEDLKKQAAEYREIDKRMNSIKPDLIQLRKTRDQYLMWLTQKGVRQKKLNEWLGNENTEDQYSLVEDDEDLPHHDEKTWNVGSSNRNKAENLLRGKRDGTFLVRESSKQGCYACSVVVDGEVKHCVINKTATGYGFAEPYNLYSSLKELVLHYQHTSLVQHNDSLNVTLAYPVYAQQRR
T2 sequence (O00329 whole entry): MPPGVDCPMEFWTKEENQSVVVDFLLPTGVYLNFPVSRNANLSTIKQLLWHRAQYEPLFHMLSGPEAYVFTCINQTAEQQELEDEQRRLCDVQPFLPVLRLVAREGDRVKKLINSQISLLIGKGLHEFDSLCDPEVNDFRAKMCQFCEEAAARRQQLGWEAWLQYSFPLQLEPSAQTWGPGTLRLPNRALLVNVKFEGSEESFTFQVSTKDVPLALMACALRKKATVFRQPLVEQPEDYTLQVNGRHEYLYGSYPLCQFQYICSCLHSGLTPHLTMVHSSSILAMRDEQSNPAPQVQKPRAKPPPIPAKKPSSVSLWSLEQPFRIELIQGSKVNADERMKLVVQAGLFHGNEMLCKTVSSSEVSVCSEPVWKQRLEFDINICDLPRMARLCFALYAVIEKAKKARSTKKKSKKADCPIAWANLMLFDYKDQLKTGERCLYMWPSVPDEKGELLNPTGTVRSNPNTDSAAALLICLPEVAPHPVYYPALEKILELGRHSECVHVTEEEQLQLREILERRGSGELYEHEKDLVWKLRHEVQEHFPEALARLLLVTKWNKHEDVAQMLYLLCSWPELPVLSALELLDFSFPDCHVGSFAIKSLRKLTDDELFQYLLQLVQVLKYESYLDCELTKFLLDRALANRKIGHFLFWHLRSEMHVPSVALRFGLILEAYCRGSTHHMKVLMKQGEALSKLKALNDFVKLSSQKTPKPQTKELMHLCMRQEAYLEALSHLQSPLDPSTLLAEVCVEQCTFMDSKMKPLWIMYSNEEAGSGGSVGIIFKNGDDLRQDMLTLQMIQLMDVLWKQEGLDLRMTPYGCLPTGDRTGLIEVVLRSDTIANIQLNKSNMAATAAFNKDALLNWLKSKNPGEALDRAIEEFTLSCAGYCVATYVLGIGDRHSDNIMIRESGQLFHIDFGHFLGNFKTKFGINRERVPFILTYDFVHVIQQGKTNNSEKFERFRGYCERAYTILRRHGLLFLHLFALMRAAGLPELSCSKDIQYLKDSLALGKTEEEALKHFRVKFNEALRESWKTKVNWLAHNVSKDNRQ
T2 sequence (P27986 whole entry partner): as the sequence (P27986 whole entry partner) above

On to `CC(F)CN(C)[C@H]1CC[C@H](CNc2nc(N3CCOCC3)cc(-n3c(C(F)F)nc4ccccc43)n2)CC1` (stereo partly drawn) [Example 330], for which the IC50 is 5500 nM in test [1] and 8.6 nM in test [2].

In the case of `FC[C@@H]1CCCN1[C@H]1CC[C@@H](COc2cc(-n3c(C(F)F)nc4ccccc43)nc(N3CCOCC3)n2)CC1` [Example 483], the half-maximal inhibitory concentration (IC50) in test [1] is 8700 nM; in test [2] it was 15 nM.

As to `CC(N[C@H]1CC[C@H](Nc2nc(N3CCOCC3)nc(-n3c(C(F)F)nc4ccccc43)n2)CC1)c1ccccc1O` (stereo partly drawn) [Example 108], the half-maximal inhibitory concentration (IC50) was 2200 nM in test [1] and 2.8 nM in test [2].

As to `O=C(N[C@H]1CC[C@H](Nc2nc(N3CCOCC3)cc(-n3c(C(F)F)nc4ccccc43)n2)CC1)[C@@H]1CCCN1` [Example 154], the IC50 in test [1] turned out to be 1800 nM; in test [2], 3.8 nM.

As to `O=S1(=O)CCCN1[C@H]1CC[C@H](Nc2cc(-n3c(C(F)F)nc4ccccc43)nc(N3CCOCC3)n2)CC1` [Example 18, 6-[2-(difluoromethyl)-1H-benzimidazol-1-yl]-N-[trans-4-(1,1-dioxidoisothiazolin-2-yl)cyclohexyl]-2-morpholin-4-ylpyrimidin-4-amine], the IC50 in test [1] came to 2900 nM; in test [2], 5 nM.

As to `O=C(N[C@H]1CC[C@H](Nc2nc(N3CCOCC3)nc(-n3c(C(F)F)nc4ccccc43)n2)CC1)C(O)CO` (stereo partly drawn) [Example 39], the IC50 in test [1] is 470 nM; in test [2], 9.5 nM.

As to `CC(=O)N(C)[C@H]1CC[C@H](Nc2nc(N3CCOCC3)nc(-n3c(C(F)F)nc4ccccc43)n2)CC1` [Example 14, N-[trans-4-({4-[2-(difluoromethyl)-1H-benzimidazol-1-yl]-6-morpholin-4-yl-1,3,5-triazin-2-yl}amino)cyclohexyl]-N-methylacetamide], the values for the IC50 in test [1] and in test [2] were 1400 nM and 4.4 nM, respectively.

On to `O=S1(=O)CCCN1[C@H]1CC[C@H](COc2cc(-n3c(C(F)F)nc4ccccc43)nc(N3CCOCC3)n2)CC1` [Example 209], for which the half-maximal inhibitory concentration (IC50) in test [1] amounted to 2800 nM; in test [2], 20 nM.

Consider `C#CCN(CC#C)[C@H]1CC[C@H](CNc2nc(N3CCOCC3)cc(-n3c(C(F)F)nc4ccccc43)n2)CC1` [Example 423], for which the results for the concentration for half-maximal inhibition (IC50) in test [1] and in test [2] were 4200 nM and 11 nM, respectively.

On to `O=C(CS(=O)(=O)c1ccccc1)N[C@H]1CC[C@H](Nc2nc(N3CCOCC3)cc(-n3c(C(F)F)nc4ccccc43)n2)CC1` [Example 52], for which the figures for the IC50 in test [1] and in test [2] were 2700 nM and 3.4 nM, respectively.

For `CN1CCC[C@@H](C(=O)N[C@H]2CC[C@H](Nc3nc(N4CCOCC4)cc(-n4c(C(F)F)nc5ccccc54)n3)CC2)C1` [Example 112], the IC50 was 1400 nM in test [1] and 4.6 nM in test [2].

Compound `O=C(CN1CCCC1)N[C@H]1CC[C@H](Nc2nc(N3CCOCC3)cc(-n3c(C(F)F)nc4ccccc43)n2)CC1` [Example 187] showed a concentration for half-maximal inhibition (IC50) in test [2] of 9.1 nM.

With `Cc1ccc(S(=O)(=O)NCC(=O)N[C@H]2CC[C@H](Nc3nc(N4CCOCC4)cc(-n4c(C(F)F)nc5ccccc54)n3)CC2)cc1` [Example 53], the IC50 is 2700 nM in test [1] and 4.6 nM in test [2].

For `O=C(NCc1ccc(F)cc1)N[C@H]1CC[C@H](Nc2nc(N3CCOCC3)nc(-n3c(C(F)F)nc4ccccc43)n2)CC1` [Example 116], the IC50 in test [1] was 180 nM; in test [2] it was 5.2 nM.

`CC(C)(O)CN(CC(C)(C)O)[C@H]1CC[C@H](CNc2nc(N3CCOCC3)cc(-n3c(C(F)F)nc4ccccc43)n2)CC1` [Example 396]: the IC50 in test [1] stood at 2300 nM; in test [2] it was 13 nM.

In the case of `Oc1ccccc1CN[C@H]1CC[C@H](Nc2nc(N3CCOCC3)nc(-n3c(C(F)F)nc4ccccc43)n2)CC1` [Example 104], the IC50 in test [1] was determined as 810 nM; in test [2] it was 2.1 nM.

Turning to `CN(C)CCC(=O)N[C@H]1CC[C@H](Nc2nc(N3CCOCC3)cc(-n3c(C(F)F)nc4ccccc43)n2)CC1` [Example 208], the 50% inhibitory concentration (IC50) stood at 2300 nM in test [1] and 8.6 nM in test [2].

Take `CC(C)(C)OC(=O)NC(C)(C)C(=O)N[C@H]1CC[C@H](Nc2nc(N3CCOCC3)cc(-n3c(C(F)F)nc4ccccc43)n2)CC1` [Example 210]: the figures for the IC50 in test [1] and in test [2] were 5100 nM and 22 nM, respectively.

Take `CCN(CC(C)(C)O)[C@H]1CC[C@H](CNc2nc(N3CCOC[C@H]3C)cc(-n3c(C(F)F)nc4ccccc43)n2)CC1` [Example 402]: the IC50 was determined as 610 nM in test [1] and 3.6 nM in test [2].

As to `O=S(=O)(N[C@H]1CC[C@H](Nc2cc(-n3c(C(F)F)nc4ccccc43)nc(N3CCOCC3)n2)CC1)c1ccccc1` [Example 95], the IC50 in test [1] was determined as 2500 nM; in test [2], 4.9 nM.

Regarding `N[C@H]1CC[C@H](Nc2nc(N3CCOCC3)nc(-n3c(C(F)F)nc4ccccc43)n2)CC1` [Example 27], the half-maximal inhibitory concentration (IC50) in test [1] stood at 990 nM; in test [2] it was 20 nM.

As for `N#Cc1ccc(NC(=O)N[C@H]2CC[C@H](Nc3cc(-n4c(C(F)F)nc5ccccc54)nc(N4CCOCC4)n3)CC2)cc1` [Example 125], the figures for the 50% inhibitory concentration (IC50) in test [1] and in test [2] were greater than 3000 nM and 1.8 nM, respectively.

Take `FC(F)c1nc2ccccc2n1-c1nc(N[C@H]2CC[C@H](N3CCOCC3)CC2)nc(N2CCOCC2)n1` [Example 10, 4-[2-(difluoromethyl)-1H-benzimidazol-1-yl]-6-morpholin-4-yl-N-(trans-4-morpholin-4-ylcyclohexyl)-1,3,5-triazin-2-amine]: the IC50 in test [1] is 1500 nM; in test [2], 7.1 nM.

For the compound `O=C(CN1CCCCCC1)N[C@H]1CC[C@H](Nc2cc(-n3c(C(F)F)nc4ccccc43)nc(N3CCOCC3)n2)CC1` [Example 190], the IC50 is greater than 3000 nM in test [1] and 4.1 nM in test [2].

Consider `C#CCN(C(C)C(C)(C)O)[C@H]1CC[C@H](CNc2nc(N3CCOCC3)cc(-n3c(C(F)F)nc4ccccc43)n2)CC1` (stereo partly drawn) [Example 481], for which the IC50 is 1100 nM in test [1] and 8.9 nM in test [2].

Take `FC[C@@H]1CCCN1[C@H]1CC[C@@H](CNc2cc(-n3c(C(F)F)nc4ccccc43)nc(N3CCOCC3)n2)CC1` [Example 485]: the IC50 in test [1] is greater than 10000 nM; in test [2], 31 nM.

`CCN(C(=O)COC)[C@H]1CC[C@H](CNc2nc(N3CCOCC3)cc(-n3c(C(F)F)nc4ccccc43)n2)CC1` [Example 499]: the IC50 in test [1] amounted to 1500 nM; in test [2], 11 nM.

Turning to `O=C1CCCN1[C@H]1CC[C@H](Nc2cc(-n3c(C(F)F)nc4ccccc43)nc(N3CCOCC3)n2)CC1` [Example 185], the half-maximal inhibitory concentration (IC50) in test [1] is greater than 3000 nM; in test [2], 4.3 nM.

Take `O=S1(=O)CCN([C@H]2CC[C@H](CNc3cc(-n4c(C(F)F)nc5ccccc54)nc(N4CCOCC4)n3)CC2)CC1` [Example 229]: the results for the half-inhibitory concentration (IC50) in test [1] and in test [2] were 6700 nM and 10 nM, respectively.

Turning to `CC(F)C(C)N(C)[C@H]1CC[C@H](CNc2nc(N3CCOCC3)cc(-n3c(C(F)F)nc4ccccc43)n2)CC1` (stereo partly drawn) [Example 384], the figures for the IC50 in test [1] and in test [2] were 1600 nM and 16 nM, respectively.

Turning to `CN(C)CC(=O)N(C)[C@H]1CC[C@H](Nc2nc(N3CCOCC3)nc(-n3c(C(F)F)nc4ccccc43)n2)CC1` [Example 47], the 50% inhibitory concentration (IC50) in test [1] turned out to be 900 nM; in test [2] it was 16 nM.

With `CCN(C(C)CF)[C@H]1CC[C@H](CNc2nc(N3CCOCC3)cc(-n3c(C(F)F)nc4ccccc43)n2)CC1` (stereo partly drawn) [Example 344], the IC50 in test [1] is 1000 nM; in test [2], 14 nM.

As to `O=C(NCCN1CCOCC1)N[C@H]1CC[C@H](Nc2nc(N3CCOCC3)nc(-n3c(C(F)F)nc4ccccc43)n2)CC1` [Example 6, 1-[trans-4-({4-[2-(difluoromethyl)-1H-benzimidazol-1-yl]-6-morpholin-4-yl-1,3,5-triazin-2-yl}amino)cyclohexyl]-3-(2-morpholin-4-ylethyl)urea], the results for the IC50 in test [1] and in test [2] were 330 nM and 4.6 nM, respectively.

For `CC(=O)N[C@H]1CC[C@H](Nc2nc(N3CCOCC3)nc(-n3c(C(F)F)nc4ccccc43)n2)CC1` [Example 193], the IC50 was determined as 550 nM in test [1] and 23 nM in test [2].

Take `N#Cc1ccc(NC(=O)N[C@H]2CC[C@H](Nc3nc(N4CCOCC4)cc(-n4c(C(F)F)nc5ccccc54)n3)CC2)cc1` [Example 123]: the values for the IC50 in test [1] and in test [2] were 460 nM and 0.85 nM, respectively.

`COCCN(CC(C)(C)O)[C@H]1CC[C@H](CNc2nc(N3CCOCC3)cc(-n3c(C(F)F)nc4ccccc43)n2)CC1` [Example 401]: the 50% inhibitory concentration (IC50) amounted to 3500 nM in test [1] and 15 nM in test [2].

In test [2], `CC(N[C@H]1CC[C@H](Nc2nc(N3CCOCC3)nc(-n3c(C(F)F)nc4ccccc43)n2)CC1)C1CCCCC1` (stereo partly drawn) [Example 107] showed an IC50 of 8.8 nM.
